Experimental findings from patent US3948890A, “4H-1,3-benzoxazin-2-one-3-acetohydroxamic acid derivatives” (Farmitalia Societa Farmaceutica Italia, priority 1971, dated 1976) are described below.

Like-named read-outs stand apart in the source and are kept apart here.

For data set [1], the system named is reserpinized swimming rat. The data set can be described thus: Antireserpine effect in a behavior test, swimming rat. It counts as in vivo.
Data set [2] can be described thus: Acute toxicity (LD50), single oral and intravenous administration. The data set is classed as in vivo, albino male mice. Particulars: mouse, in vivo, single administration, within 48 hours. On the procedure:
(§1) The acute toxicity (LD50), determined on albino male mice (weight 20-22 g) by a single oral and intravenous administration, is settled within 48 hours.

The nature of data set [3]: Antagonism to the reserpine induced syndrome (ptosis, rectal temperature). It counts as in vivo. Set-up: Ptosis: scale not given here.
Data set [4] in a line: Highest tolerated intraperitoneal dose. Particulars: in vivo, ip.
Data set [5] deals with albino male mice. Put plainly: Acute toxicity (LD50), single oral and intravenous administration. The data set is classed as in vivo. Particulars: intravenous route. On the procedure:
as §1

Data set [6] has as its system albino male mice. Put plainly: Spontaneous behavior, motor coordination, muscular tension and nociceptive reflexes. It counts as in vivo. The following applies: up to 200 mg/kg i.v., observation 5 hours. The source says: Among the compounds of the invention, 4H-1,3-benzoxazin-2-one-3-[N-(β-hydroxyethyl)-piperazino-methyl]-acetohydroxamic acid has been particularly studied and compared with 4H-1,3-benzoxazin-2-one-3-acetohydroxamic acid.

Setting [7] is: Table 4, 50 mg/kg intraperitoneal, reserpine not stated.
The mark [8] stands for this setting: 50.0 mg/kg intraperitoneal, + R (reserpine).
[9] abbreviates: 25 mg/kg intraperitoneal, + R (reserpine).
Where [10] appears, read: 100.0 mg/kg intraperitoneal, + R (reserpine).
Where [11] appears, read: 50 mg/kg intraperitoneal, + R (reserpine).
[12] abbreviates: 25.0 mg/kg intraperitoneal, + R (reserpine).
[13] abbreviates: reserpine alone, 3.0 mg/kg intraperitoneal.

On to `CCN(CC)CCN(CC)CN(O)C(=O)CN1Cc2ccccc2OC1=O` [Example 2, 4H-1,3-benzoxazin-2-one-3-[(N,N,N'triethyl)-ethylenediaminomethyl]-acetohydroxamic acid], for which, in data set [1] (setting [7]), the “Average time to get out of the basin” value was found to be 10 s and the “Number of the animals which do not get out” value is given as 1/10. In data set [1] (in words), the test results is on record as “good test results”. The LD50 at 48 h in data set [2] (po, per os) came to 2550 mg/kg. The same molecule registered an LD50 at 48 h in data set [2] (intravenous) of 328 mg/kg.
Regarding `CN(C)CCCN1c2ccccc2CCc2ccccc21` [Imipramine, reference compound], in data set [3] (setting [8]), the Ptosis came to 29 and the Rectal temperature was 36.0 °C. In data set [1] (setting [9]), the “Average time to get out of the basin” value was 40 s and the “Number of the animals which do not get out” value is given as 7/10. In addition, the MTD in data set [4] (read-out: highest tolerated dose) was found to be 50 mg/kg.
Regarding `O=C(CN1Cc2ccccc2OC1=O)NO` [4H-1,3-benzoxazin-2-one-3-acetohydroxamic acid], in data set [3] (setting [8]), the Ptosis is reported as 29 and the Rectal temperature was 36.0 °C. In data set [3] (setting [10]), the Ptosis was 5 and the Rectal temperature worked out at 38.1 °C. Besides, in data set [1] (setting [11]), the “Average time to get out of the basin” value came out at 25 s and the “Number of the animals which do not get out” value is listed as 0/10. Besides, the LD50 at 48 h in data set [2] (po, per os) was ~2000 mg/kg. Also, in data set [2] (intravenous), the LD50 at 48 h amounted to 350 mg/kg.
For `O=C(CN1Cc2ccccc2OC1=O)N(O)CN1CCN(CCO)CC1` [4H-1,3-benzoxazin-2-one-3-[N-(β-hydroxyethyl)piperazinomethyl] -acetohydroxamic acid], in data set [3] (setting [12]), the Ptosis stood at 24 and the Rectal temperature was 33.1 °C. Moreover, in data set [3] (setting [8]), the Ptosis was 19 and the Rectal temperature was 35.6 °C. Also, in data set [3] (setting [10]), the Ptosis was determined as 2 and the Rectal temperature was found to be 37.6 °C. In data set [3] (in words, Table 1), the “antagonizing the hypothermia induced by reserpine” value is on record as “most active” and the “antagonizing the ptosis induced by reserpine” value is given as “most active”. Also, in data set [1] (setting [9]), the “Average time to get out of the basin” value worked out at 28 s and the “Number of the animals which do not get out” value is listed as 0/10. The “getting out of a basin full of water” value in data set [1] (in words, pretreated plus reserpine, versus control animals) was “manage to get out of the basin within a period of time slightly longer than that of the control animals”. Further, the LD50 at 48 h in data set [2] (po, per os) was > 3000 mg/kg. Also, in data set [2] (intravenous), the LD50 at 48 h was determined as 576 mg/kg. For the same molecule, the “times less toxic than Imipramine” value in data set [5] is on record as “about 20 times”. Besides, the “less toxic than 4H-1,3-benzoxazin-2-one-3-acetohydroxamic acid” value in data set [5] (in words) is “about half again less toxic”. Moreover, in data set [6], the motor apparatus coordination result was “does not modify”, the muscular tension result is on record as “does not modify”, the nociceptive reflexes result was “does not modify” and the spontaneous behavior result was “does not modify”. Moreover, in data set [4] (read-out: tolerated up to dose), the MTD is ≥ 300 mg/kg.
In data set [3] (setting [13]), `COC(=O)[C@H]1[C@H]2C[C@@H]3c4[nH]c5cc(OC)ccc5c4CCN3C[C@H]2C[C@@H](OC(=O)c2cc(OC)c(OC)c(OC)c2)[C@@H]1OC` [Reserpine, reference compound] registered a Ptosis of 40 and a Rectal temperature of 32.1 °C. For the same molecule, the “getting out of a basin full of water” value in data set [1] (in words, reserpinized animals) is recorded as “can no longer get out of a basin full of water”. The “Number of the animals which do not get out” value in data set [1] (reserpine alone, 5 mg/kg intraperitoneal) is on record as 10/10.
